This passage reports Survival, MIC and IC50 results from ChEMBL document CHEMBL1132768, “Differential antibacterial activity of moenomycin analogues on gram-positive bacteria” (Bioorg Med Chem Lett, 2000).

SMILES strings stand for the structures. pIC50: −log10 of the molar value. ≈ marks a conversion by molar mass, not a printed value.

Experiment [1] deals with Enterococcus faecalis. In words: Compound was evaluated for bactericidal activity against Enterococcus faecalis. In kind it is functional. On the set-up: concentration or dose not given beside the values.
The test system of experiment [2] is Escherichia coli. In words: Compound was evaluated for its antibacterial activity against Escherichia coli BAS849. In kind it is functional.
For experiment [3], the system named is Escherichia coli. As to the kind of experiment: Compound was evaluated for inhibition of peptidoglycan synthesis in Escherichia coli using UDP-[14C]-GlcNAc radioligand. Format: functional, organism-based.
The subject of experiment [4] is Escherichia coli. In words: Compound was evaluated for inhibition of peptidoglycan synthesis in Escherichia coli using [14C]-lipid II radioligand. In kind it is functional, organism-based.
The subject of experiment [5] is Enterococcus faecium. In words: Compound was evaluated for its antibacterial activity against Enterococcus faecium CL4931 (Van A). In kind it is functional.
For experiment [6], the system named is Enterococcus faecium. As to the kind of experiment: Compound was evaluated for its antibacterial activity against Enterococcus faecium RLA1 strain resistant to ampicillin. Format: functional.
Experiment [7] concerns Enterococcus faecium. In words: Compound was evaluated for its antibacterial activity against Enterococcus faecium ATCC 49624. Format: functional.
Experiment [8] concerns Enterococcus faecalis. In words: Compound was evaluated for inhibition of peptidoglycan synthesis in Enterococcus faecalis using [14C]lysine radioligand. In kind it is functional, organism-based.
Experiment [9] concerns Enterococcus faecalis. As to the kind of experiment: Compound was evaluated for its antibacterial activity against Enterococcus faecalis ATCC 29212. Format: functional.
Experiment [10] relates to Enterococcus faecalis. As to the kind of experiment: Compound was evaluated for its antibacterial activity against Enterococcus faecalis CL4877 (Van B). In kind it is functional.
In experiment [11] the test system is Enterococcus faecalis. In words: Compound was evaluated for its antibacterial activity against Enterococcus faecalis CL5244 (Van B). In kind it is functional.
Experiment [12] has as its system Staphylococcus epidermidis. In words: Compound was evaluated for bactericidal activity against Staphylococcus epidermidis. Format: functional.
Experiment [13] deals with Staphylococcus aureus. In words: Compound was evaluated for bactericidal activity against Staphylococcus aureus. Format: functional.
Experiment [14] relates to Staphylococcus aureus. As to the kind of experiment: Compound was evaluated for its antibacterial activity against Staphylococcus aureus ATCC 29213. Format: functional.
Experiment [15] deals with Staphylococcus epidermidis. As to the kind of experiment: Compound was evaluated for its antibacterial activity against Staphylococcus epidermidis ATCC 12228. In kind it is functional.
Experiment [16] has as its system Enterococcus faecalis. As to the kind of experiment: Compound was evaluated for inhibition of peptidoglycan synthesis in Enterococcus faecalis using [14C]lysine radioligand; not applicable. Format: functional, organism-based.
Experiment [17] deals with Staphylococcus epidermidis. As to the kind of experiment: Compound was evaluated for its antibacterial activity against […] ATCC 12228. Format: functional.
Experiment [18] has as its system Staphylococcus epidermidis. In words: Compound was evaluated for bactericidal activity against […]. Format: functional.

As a reminder, the MIC is the smallest concentration in the dilution series that meets the test's criterion for growth inhibition. By pIC50 is commonly meant the IC50 on a negative log10 scale, so that one unit is a factor of ten. `CC(=O)N[C@@H]1[C@H](O[C@H]2[C@@H](O)[C@H](NC(C)=O)[C@H](OC3[C@@H](OP(=O)(O)OC[C@@H](OCCC(C)CCCCC(C)(C)CCC(C)CCC(C)CCCC(C)C)C(=O)O)O[C@@H](C(N)=O)[C@@](C)(O)[C@@H]3OC(N)=O)O[C@H]2CO[C@@H]2O[C@@H](CO)[C@@H](O)[C@H](O)[C@@H]2O)O[C@@H](C)[C@@H](O[C@@H]2O[C@@H](C(=O)NC3=C(O)CCC3=O)[C@H](O)[C@H](O)[C@@H]2O)[C@@H]1O` (stereo partly specified): the Survival in the experiment with Enterococcus faecalis [1] is recorded as 141%; in [12], 0.33%; in the experiment with Staphylococcus aureus [13] it was 62%. Moreover, the minimum inhibitory concentration (MIC) in the experiment with Escherichia coli [2] was 0.31 µg/mL (≈ 0.195 µM); against Enterococcus faecium [5], 0.78 µg/mL (≈ 0.49 µM); against Enterococcus faecium [6], 0.25 µg/mL (≈ 0.157 µM); with Enterococcus faecium [7], over 25 µg/mL; against Enterococcus faecalis [9], 0.08 µg/mL (≈ 0.0502 µM); against Enterococcus faecalis [10], 0.25 µg/mL (≈ 0.157 µM). The figures for the MIC (against Enterococcus faecalis [11]; in the experiment on Staphylococcus aureus [14]; in [15]) were 0.25 µg/mL (≈ 0.157 µM), 0.16 µg/mL (≈ 0.1 µM) and 0.31 µg/mL (≈ 0.195 µM), respectively. The pIC50 in the experiment with Escherichia coli [3] was 8.09; in the experiment with Escherichia coli [4] it was 7.01; in the experiment on Enterococcus faecalis [8], under 3.15.

For the compound `CC(=O)NC1C(OC2C(OP(=O)(O)OC[C@@H](OCCC(C)CCCCC(C)(C)CCC(C)CCC(C)CCCC(C)C)C(=O)O)OC(C(N)=O)C(C)(O)C2OC(N)=O)OC(CO)C(O)C1O` (stereo partly specified), the MIC in the experiment on Escherichia coli [2], in the experiment on Enterococcus faecium [5], against Enterococcus faecium [7], against Enterococcus faecalis [9], in the experiment on Enterococcus faecalis [10] and against Enterococcus faecalis [11] was over 100 µg/mL each time. Besides, the MIC (against Staphylococcus aureus [14]; in experiment [15]) was over 100 µg/mL throughout. Further, the results for the pIC50 with Escherichia coli [3] and with Escherichia coli [4] were 7.48 and 6.62, respectively. Moreover, the IC50 entry in the experiment on Enterococcus faecalis [16] is on record as “Not Active”.

For the compound `CN[C@H](CC(C)C)C(=O)N[C@H]1C(=O)N[C@@H](CC(N)=O)C(=O)N[C@H]2C(=O)N[C@H]3C(=O)N[C@H](C(=O)N[C@H](C(=O)O)c4cc(O)cc(O)c4-c4cc3ccc4O)[C@H](O)c3ccc(c(Cl)c3)Oc3cc2cc(c3O[C@@H]2O[C@H](CO)[C@@H](O)[C@H](O)[C@H]2O[C@H]2C[C@](C)(N)[C@H](O)[C@H](C)O2)Oc2ccc(cc2Cl)[C@H]1O` [VANCOMYCIN], the MIC is 0.78 µg/mL (≈ 0.538 µM) in the experiment with Escherichia coli [2]; over 1250 µg/mL with Enterococcus faecium [5]; 0.78 µg/mL (≈ 0.538 µM) against Enterococcus faecium [6]; 0.39 µg/mL (≈ 0.269 µM) against Enterococcus faecium [7]; 3.12 µg/mL (≈ 2.15 µM) with Enterococcus faecalis [9]; 1250 µg/mL (≈ 863 µM) in the experiment with Enterococcus faecalis [10]. This compound had an MIC in the experiment with Enterococcus faecalis [11] of 25 µg/mL (≈ 17.3 µM). The pIC50 was 5.43 with Escherichia coli [3], 5.35 in the experiment on Escherichia coli [4] and 5.59 in the experiment with Enterococcus faecalis [8].

Take `CC(=O)NC1C(OC2C(CO)OC(OC3C(OP(=O)(O)OC[C@@H](OCCC(C)CCCCC(C)(C)CCC(C)CCC(C)CCCC(C)C)C(=O)O)OC(C(N)=O)C(C)(O)C3OC(N)=O)C(NC(C)=O)C2O)OC(C)C(O)C1O` (stereo partly specified): the Survival is listed as 147% with Enterococcus faecalis [1], 0.022% in experiment [12] and 0.035% with Staphylococcus aureus [13]. Further, the MIC in the experiment with Escherichia coli [2] came out at 0.31 µg/mL (≈ 0.267 µM); against Enterococcus faecium [5], 1.56 µg/mL (≈ 1.35 µM); against Enterococcus faecium [6], 1.56 µg/mL (≈ 1.35 µM); against Enterococcus faecium [7], 25 µg/mL (≈ 21.6 µM); against Enterococcus faecalis [9], 0.78 µg/mL (≈ 0.673 µM); against Enterococcus faecalis [10] it was 1.56 µg/mL (≈ 1.35 µM). The MIC in the experiment with Enterococcus faecalis [11] was 1.56 µg/mL (≈ 1.35 µM); in the experiment on Staphylococcus aureus [14] it was 0.63 µg/mL (≈ 0.543 µM); in experiment [17], 0.53 µg/mL (≈ 0.457 µM). Besides, the results for the pIC50 in the experiment on Escherichia coli [3], with Escherichia coli [4] and with Enterococcus faecalis [8] were 7.80, 6.88 and 4.30, respectively.

Take `C=C(C/C=C(\C)CCC=C(C)C)CCC(C)(C)/C=C/CC/C(C)=C\CO[C@H](COP(=O)(O)O[C@H]1O[C@@H](C(N)=O)[C@@](C)(O)[C@H](OC(N)=O)[C@@H]1O[C@@H]1O[C@@H](CO[C@@H]2O[C@@H](CO)[C@@H](O)[C@H](O)[C@@H]2O)[C@@H](O[C@@H]2O[C@@H](C)[C@@H](O[C@@H]3O[C@@H](C(=O)NC4=C(O)CCC4=O)[C@H](O)[C@H](O)[C@@H]3O)[C@H](O)[C@@H]2NC(C)=O)[C@@H](O)[C@@H]1NC(C)=O)C(=O)O` [MOENOMYCIN]: the values for the Survival (in the experiment on Enterococcus faecalis [1]; in experiment [12]; in the experiment on Staphylococcus aureus [13]) were 143%, 0.48% and 125%, respectively. Moreover, the MIC against Escherichia coli [2] is 0.025 µg/mL (≈ 0.0158 µM); in the experiment on Enterococcus faecium [5] it was 0.25 µg/mL (≈ 0.158 µM); against Enterococcus faecium [6], 0.78 µg/mL (≈ 0.493 µM); against Enterococcus faecium [7] it was over 200 µg/mL; in the experiment with Enterococcus faecalis [9] it was 0.078 µg/mL (≈ 0.0493 µM); against Enterococcus faecalis [10], 0.13 µg/mL (≈ 0.0821 µM). Besides, the values for the MIC (in the experiment on Enterococcus faecalis [11]; in the experiment with Staphylococcus aureus [14]; in experiment [17]) were 0.06 µg/mL (≈ 0.0379 µM), 0.05 µg/mL (≈ 0.0316 µM) and 0.025 µg/mL (≈ 0.0158 µM), respectively. For the same compound, the results for the pIC50 in the experiment with Escherichia coli [3], with Escherichia coli [4] and with Enterococcus faecalis [8] were 7.81, 7.51 and under 3.15, respectively.

`CCCCCCCCCCCCO[C@H](COP(=O)(O)OC1OC(C(N)=O)C(O)C(NC(=O)Nc2ccc(Cl)c(C(F)(F)F)c2)C1OC1OC(CO)C(O)C(O)C1NC(=O)c1cccc(C(F)(F)F)c1)C(=O)O` (stereo partly specified): the figures for the Survival (with Enterococcus faecalis [1]; in experiment [18]; with Staphylococcus aureus [13]) were 0.00024%, under 5e-05% and under 5e-05%, respectively. The MIC in the experiment on Escherichia coli [2] was 12.5 µg/mL (≈ 11.5 µM); in the experiment on Enterococcus faecium [5] it was 6.25 µg/mL (≈ 5.77 µM); in the experiment on Enterococcus faecium [6] it was 6.25 µg/mL (≈ 5.77 µM); against Enterococcus faecium [7], 6.25 µg/mL (≈ 5.77 µM); in the experiment with Enterococcus faecalis [9], 6.25 µg/mL (≈ 5.77 µM); against Enterococcus faecalis [10], 3.13 µg/mL (≈ 2.89 µM). Besides, the MIC in the experiment on Enterococcus faecalis [11] amounted to 3.13 µg/mL (≈ 2.89 µM); against Staphylococcus aureus [14], 6.25 µg/mL (≈ 5.77 µM); in experiment [17], 6.25 µg/mL (≈ 5.77 µM). For the same compound, the pIC50 is 5.01 in the experiment on Escherichia coli [3], 4.00 in the experiment with Escherichia coli [4] and 5.60 with Enterococcus faecalis [8].

Regarding `CC(=O)N[C@@H]1[C@H](O[C@H]2[C@@H](O)[C@H](NC(C)=O)[C@H](O[C@@H]3[C@@H](OP(=O)(O)OC[C@@H](OCCC(C)CCCCC(C)(C)CCC(C)CCC(C)CCCC(C)C)C(=O)O)O[C@@H](C(N)=O)[C@@](C)(O)[C@@H]3OC(N)=O)O[C@H]2CO[C@@H]2O[C@@H](CO)[C@@H](O)[C@H](O)[C@@H]2O)O[C@@H](C)[C@@H](O[C@@H]2O[C@@H](C(N)=O)[C@H](O)[C@H](O)[C@@H]2O)[C@@H]1O` (stereo partly specified), the Survival in the experiment on Enterococcus faecalis [1] worked out at 176%; in experiment [12], 0.4%; in the experiment with Staphylococcus aureus [13], 61%. The MIC is 0.08 µg/mL (≈ 0.0535 µM) with Escherichia coli [2]; 0.39 µg/mL (≈ 0.261 µM) with Enterococcus faecium [5]; 0.25 µg/mL (≈ 0.167 µM) against Enterococcus faecium [6]; over 25 µg/mL in the experiment with Enterococcus faecium [7]; 0.16 µg/mL (≈ 0.107 µM) against Enterococcus faecalis [9]; 0.25 µg/mL (≈ 0.167 µM) against Enterococcus faecalis [10]. The MIC against Enterococcus faecalis [11] came out at 0.25 µg/mL (≈ 0.167 µM); with Staphylococcus aureus [14], 0.08 µg/mL (≈ 0.0535 µM); in [17], 0.16 µg/mL (≈ 0.107 µM). The negative-log IC50 (pIC50) with Escherichia coli [3] was 8.07; with Escherichia coli [4], 7.06; in the experiment with Enterococcus faecalis [8] it was under 3.15.
